Several values for one entry are separate records, joined by “and”; a condition that tells them apart may be missing. Equal values may be shown once. Toxic doses and inconclusive results are not listed.
Test system: L1210 leukemia ip in BDF1 mice, survival T/C
Test: NCI In Vivo Anticancer Drug Screen. Data for tumor model L1210 Leukemia (intraperitoneal) in B6D2F1 (BDF1) mice
Details: endpoint: mean survival time, higher = longer survival
Method in brief: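 Tumor was transplanted into mice, which were then dosed with test compound or vehicle alone. Survival was recorded for each group, and the treated figure was expressed relative to the control figure.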

[1] = dose: 50.0 mg/kg/injection, schedule: Q01DX001 (ip), vehicle: saline
[2] = dose: 100.0 mg/kg/injection, schedule: Q01DX001 (ip), vehicle: saline
[3] = dose: 200.0 mg/kg/injection, schedule: Q01DX001 (ip), vehicle: saline
[4] = dose: 400.0 mg/kg/injection, schedule: Q01DX001 (ip), vehicle: saline
[5] = dose: 25.0 mg/kg/injection, schedule: Q01DX009 (ip), vehicle: Klucel (hydroxypropylcellulose) (HPC)
[6] = dose: 50.0 mg/kg/injection, schedule: Q01DX009 (ip), vehicle: Klucel (hydroxypropylcellulose) (HPC)
[7] = dose: 100.0 mg/kg/injection, schedule: Q01DX009 (ip), vehicle: Klucel (hydroxypropylcellulose) (HPC)
[8] = dose: 100.0 mg/kg/injection, schedule: Q04DX003 (ip), vehicle: Klucel (hydroxypropylcellulose) (HPC)
[9] = dose: 200.0 mg/kg/injection, schedule: Q04DX003 (ip), vehicle: Klucel (hydroxypropylcellulose) (HPC)
[10] = dose: 400.0 mg/kg/injection, schedule: Q04DX003 (ip), vehicle: Klucel (hydroxypropylcellulose) (HPC)
[11] = dose: 12.5 mg/kg/injection, schedule: Q04DX003 (ip), vehicle: Klucel (hydroxypropylcellulose) (HPC)
[12] = dose: 25.0 mg/kg/injection, schedule: Q04DX003 (ip), vehicle: Klucel (hydroxypropylcellulose) (HPC)
[13] = dose: 200.0 mg/kg/injection, schedule: Q01DX009 (ip), vehicle: Klucel (hydroxypropylcellulose) (HPC)
[14] = dose: 400.0 mg/kg/injection, schedule: Q01DX009 (ip), vehicle: Klucel (hydroxypropylcellulose) (HPC)
[15] = dose: 100.0 mg/kg/injection, schedule: Q04DX002 (ip), vehicle: Klucel (hydroxypropylcellulose) (HPC)
[16] = dose: 200.0 mg/kg/injection, schedule: Q04DX002 (ip), vehicle: Klucel (hydroxypropylcellulose) (HPC)
[17] = dose: 400.0 mg/kg/injection, schedule: Q04DX002 (ip), vehicle: Klucel (hydroxypropylcellulose) (HPC)
[18] = dose: 100.0 mg/kg/injection, schedule: Q01DX009 (ip), vehicle: saline with Tween-80
[19] = dose: 100.0 mg/kg/injection, schedule: Q04DX003 (ip), vehicle: saline with Tween-80
[20] = dose: 200.0 mg/kg/injection, schedule: Q04DX003 (ip), vehicle: saline with Tween-80
[21] = dose: 400.0 mg/kg/injection, schedule: Q01DX009 (ip), vehicle: saline with Tween-80
[22] = dose: 400.0 mg/kg/injection, schedule: Q04DX003 (ip), vehicle: saline with Tween-80
[23] = dose: 100.0 mg/kg/injection, schedule: Q01DX001 (ip), vehicle: Klucel (hydroxypropylcellulose) (HPC)
[24] = dose: 200.0 mg/kg/injection, schedule: Q01DX001 (ip), vehicle: Klucel (hydroxypropylcellulose) (HPC)
[25] = dose: 400.0 mg/kg/injection, schedule: Q01DX001 (ip), vehicle: Klucel (hydroxypropylcellulose) (HPC)

Structure (SMILES): O=C1OC(C(O)CO)C(O)C1O (stereo not given)
- T/C (dose: 25.0 mg/kg/injection, schedule: Q04DX002 (ip), vehicle: saline with Tween-80): 101 % of control
- T/C [1]: 94 % of control
- T/C (dose: 50.0 mg/kg/injection, schedule: Q04DX002 (ip), vehicle: saline with Tween-80): 101 % of control
- T/C [2]: 100 % of control
- T/C (dose: 100.0 mg/kg/injection, schedule: Q04DX002 (ip), vehicle: saline with Tween-80): 96 % of control
- T/C [3]: 100 % of control
- T/C (dose: 200.0 mg/kg/injection, schedule: Q04DX002 (ip), vehicle: saline with Tween-80): 101 % of control
- T/C [4]: 92 % of control

Structure (SMILES): O=NN(CCCl)C(=O)Nc1cccc2cccnc12
- T/C (dose: 0.62 mg/kg/injection, schedule: Q01DX001 (ip), vehicle: carboxymethylcellulose (CMC)): 112 % of control
- T/C (dose: 1.25 mg/kg/injection, schedule: Q01DX001 (ip), vehicle: carboxymethylcellulose (CMC)): 117 % of control
- T/C (dose: 2.5 mg/kg/injection, schedule: Q01DX001 (ip), vehicle: carboxymethylcellulose (CMC)): 117 % of control

Structure (SMILES): CC1(C)/C(=N\N=C2/C3CCC(C3)C2(C)C)C2CCC1C2
- T/C (dose: 12.5 mg/kg/injection, schedule: Q01DX009 (ip), vehicle: saline): 105 % of control
- T/C (dose: 25.0 mg/kg/injection, schedule: Q01DX009 (ip), vehicle: saline): 100 % of control
- T/C (dose: 50.0 mg/kg/injection, schedule: Q01DX009 (ip), vehicle: saline with Tween-80): 106 % of control
- T/C (dose: 50.0 mg/kg/injection, schedule: Q01DX009 (ip), vehicle: saline): 109 % of control
- T/C (dose: 100.0 mg/kg/injection, schedule: Q04DX003 (ip), vehicle: saline): 109 % of control
- T/C (dose: 200.0 mg/kg/injection, schedule: Q04DX003 (ip), vehicle: saline): 108 % of control

Structure (SMILES): C=CC(=O)NC1CCCCC1
- T/C [5]: 97 % of control
- T/C [6]: 95 % of control
- T/C [7]: 102 % of control
- T/C [8]: 100 % of control
- T/C [9]: 98 % of control
- T/C [10]: 100 % of control

Structure (SMILES): CC1(C)CC(=O)CC(C)(C#N)C1 (stereo not given)
- T/C (dose: 6.25 mg/kg/injection, schedule: Q01DX009 (ip), vehicle: Klucel (hydroxypropylcellulose) (HPC)): 97 % of control
- T/C (dose: 12.5 mg/kg/injection, schedule: Q01DX009 (ip), vehicle: Klucel (hydroxypropylcellulose) (HPC)): 99 % of control
- T/C [11]: 91 % of control
- T/C [12]: 93 % of control

Structure (SMILES): O=[N+]([O-])c1ncc[nH]1
- T/C [1]: 96 % of control
- T/C [2]: 98 % of control
- T/C [3]: 102 % of control

Structure (SMILES): COc1ccc(Br)cc1C1(O)C2C=CC1CC2 (stereo not given)
- T/C [7]: 102 % of control
- T/C [13]: 102 % of control
- T/C [14]: 98 % of control

Structure (SMILES): NCc1cccn1OCc1ccccc1
- T/C [5]: 108 % of control
- T/C [6]: 108 % of control
- T/C [7]: 152 % of control

Structure (SMILES): CN(C)C(=S)Sc1nc2ccccc2s1
- T/C [8]: 101 % of control
- T/C [9]: 104 % of control
- T/C [10]: 101 % of control

Structure (SMILES): O=S(=O)(c1ccccc1)C1C2C=CC(O2)C1S(=O)(=O)c1ccccc1 (stereo not given)
- T/C [15]: 91 % of control
- T/C [16]: 93 % of control
- T/C [17]: 93 % of control

Structure (SMILES): O=c1cc(-c2ccccc2)[nH]c(=S)[nH]1
- T/C [18]: 94 % of control
- T/C [19]: 101 % of control
- T/C [20]: 103 % of control
- T/C [21]: 89 % of control
- T/C [22]: 106 % of control

Structure (SMILES): O=[N+]([O-])c1ccccc1S(=O)(=O)/C=C/c1ccccc1
- T/C [23]: 96 % of control
- T/C [7]: 93 % of control
- T/C [8]: 100 % of control
- T/C [24]: 109 % of control
- T/C [13]: 100 % of control
- T/C [9]: 106 % of control
- T/C [25]: 96 % of control
- T/C [14]: 94 % of control
- T/C [10]: 101 % of control

Structure (SMILES): CCOc1ccccc1/C=N\NC(=O)c1cccc2ccccc12
- T/C [2]: 95 % of control
- T/C [3]: 95 % of control
- T/C [4]: 90 % of control

Structure (SMILES): O=C(N/N=C/c1ccc(O)cc1)C(c1ccccc1)N1CCCCC1 (stereo not given)
- T/C (dose: 100.0 mg/kg/injection, schedule: Q01DX001 (ip), vehicle: other): 102 % of control
- T/C (dose: 200.0 mg/kg/injection, schedule: Q01DX001 (ip), vehicle: other): 93 % of control
- T/C (dose: 400.0 mg/kg/injection, schedule: Q01DX001 (ip), vehicle: other): 96 % of control

Structure (SMILES): CC(=O)N/C(=C\c1ccccc1)C(N)=O
- T/C [19]: 91 % of control
- T/C [20]: 97 % of control
- T/C [22]: 96 % of control

Structure (SMILES): OC(c1ccccc1)C1(O)CC2CCC1C2 (stereo not given)
- T/C (dose: 6.25 mg/kg/injection, schedule: Q01DX001 (ip), vehicle: saline): 96 % of control
- T/C (dose: 125.0 mg/kg/injection, schedule: Q01DX001 (ip), vehicle: saline): 100 % of control
- T/C (dose: 250.0 mg/kg/injection, schedule: Q01DX001 (ip), vehicle: saline): 98 % of control

Structure (SMILES): CC(=O)OC1C(=O)C(C)(C)CSCC1(C)C (stereo not given)
- T/C [7]: 103 % of control
- T/C [13]: 103 % of control
- T/C [14]: 105 % of control

Structure (SMILES): CCCCC(=O)c1cc2ccccc2c2ccccc12
- T/C [2]: 94 % of control
- T/C [3]: 88 % of control
- T/C [4]: 98 % of control

Structure (SMILES): CN(C)C(=O)Sc1cccnc1
- T/C (dose: 100.0 mg/kg/injection, schedule: Q01DX009 (ip), vehicle: saline): 116 % of control
- T/C (dose: 200.0 mg/kg/injection, schedule: Q01DX009 (ip), vehicle: saline): 119 % of control

Structure (SMILES): COc1cccc(C[P+](C/C=C/c2ccccc2)(c2ccccc2)c2ccccc2)c1
- T/C (dose: 6.25 mg/kg/injection, schedule: Q04DX003 (ip), vehicle: Klucel (hydroxypropylcellulose) (HPC)): 109 % of control
- T/C [11]: 88 % of control
- T/C [12]: 97 % of control

Structure (SMILES): NCC(=O)NCCCC(=O)O
- T/C (dose: 18.75 mg/kg/injection, schedule: Q01DX001 (ip), vehicle: saline): 90 % of control
- T/C (dose: 37.5 mg/kg/injection, schedule: Q01DX001 (ip), vehicle: saline): 101 % of control
- T/C (dose: 75.0 mg/kg/injection, schedule: Q01DX001 (ip), vehicle: saline): 104 % of control

Structure (SMILES): OC12c3ccccc3C1(c1ccccn1)c1ccccc12 (stereo not given)
- T/C (dose: 100.0 mg/kg/injection, schedule: Q01DX009 (ip), vehicle: gum acacia): 98 % of control
- T/C (dose: 100.0 mg/kg/injection, schedule: Q04DX003 (ip), vehicle: gum acacia): 98 % of control
- T/C (dose: 200.0 mg/kg/injection, schedule: Q01DX009 (ip), vehicle: gum acacia): 96 % of control
- T/C (dose: 200.0 mg/kg/injection, schedule: Q04DX003 (ip), vehicle: gum acacia): 98 % of control
- T/C (dose: 400.0 mg/kg/injection, schedule: Q01DX009 (ip), vehicle: gum acacia): 100 % of control
- T/C (dose: 400.0 mg/kg/injection, schedule: Q04DX003 (ip), vehicle: gum acacia): 103 % of control

Structure (SMILES): Oc1ccc(C=Nc2ccccc2N=Cc2ccc(O)c(O)c2)cc1O
- T/C [18]: 105 % of control
- T/C [19]: 100 % of control
- T/C (dose: 200.0 mg/kg/injection, schedule: Q01DX009 (ip), vehicle: saline with Tween-80): 100 % of control
- T/C [20]: 96 % of control
- T/C [21]: 100 % of control
- T/C [22]: 91 % of control

Structure (SMILES): CCCCCCSc1nccnc1C
- T/C [5]: 100 % of control
- T/C (dose: 50.0 mg/kg/injection, schedule: Q01DX001 (ip), vehicle: Klucel (hydroxypropylcellulose) (HPC)): 92 % of control
- T/C [6]: 92 % of control and 96 % of control
- T/C (dose: 50.0 mg/kg/injection, schedule: Q04DX002 (ip), vehicle: Klucel (hydroxypropylcellulose) (HPC)): 92 % of control
- T/C (dose: 50.0 mg/kg/injection, schedule: Q04DX003 (ip), vehicle: Klucel (hydroxypropylcellulose) (HPC)): 93 % of control
- T/C [23]: 95 % of control
- T/C [7]: 123 % of control and 91 % of control
- T/C [15]: 102 % of control
- T/C [8]: 95 % of control
- T/C [24]: 98 % of control
- T/C [13]: 100 % of control
- T/C [16]: 87 % of control
- T/C [9]: 92 % of control
- T/C [25]: 98 % of control
- T/C [17]: 94 % of control
- T/C [10]: 87 % of control

— PubChem BioAssay AID248 (DTP/NCI, 2004)
